Assay results reported in publication PMC11981944 (Nature, 2025).
Read-outs that look alike come from different tables or passages of the source.

What was measured:
[1] = test system: SARS-CoV-2; format: cell-based
[2] = test system: SARS-CoV-2 USA-WA1/2020; set-up: species or system Syrian hamsters (Mesocricetus auratus); details: hamster, in vivo
[3] = test system: SARS-CoV-2 B.1.351; format: in vivo; details: SCID mice, no ritonavir
[4] = test system: SARS-CoV-2 (strain BavPat1/2020); format: cell-based

SMILES | antiviral activity (in words) [1] | lung parenchyma histology (in words) [2] | antiviral activity in vivo (in words) ([3]; 100 mg per kg twice a day) | antiviral activity in vivo (in words) ([3]; three-fold higher dose (300 mg per kg twice a day)) | DMVs by TEM (in words) [4]
N#C[C@@]1(c2ccc3c(N)ncnn23)O[C@H](CO)[C@@H](O)[C@H]1O [GS-441524] | micromolar range | – | – | – | –
CC(C)(C)[C@H](NC(=O)C(F)(F)F)C(=O)N1C[C@H]2[C@@H]([C@H]1C(=O)N[C@H](C#N)C[C@@H]1CCNC1=O)C2(C)C [Nirmatrelvir] | – | nearly normal | devoid of antiviral activity | effective | no cells producing DMV clusters, virions or concentric membrane stacks could be detected
